Test [1] has as its target T1, p300 (1-111) (Homo sapiens, UniProt Q09472).
T1 construct: 6xHis (C); HSV tag (C); expressed in transfected cells
Briefly: Pull-down of p300 deletion constructs on COMPOUND 2 coated beads, competition with excess COMPOUND 1. Particulars: p300 (1-111), (1-211), (1-351) in SW480 lysates, 150 μM COMPOUND 1. The format is binding. The procedure: FIG. 2. The first 111 amino acids of CBP, but not p300, specifically bind COMPOUND 1. • A. Schematic representation of the wild-type and deletion constructs for CBP. • B. CBP (1-111) contains the minimal binding domain of COMPOUND 1. Expression levels of CBP deletion constructs in SW480 cells are shown (upper panel). 10 μg of total protein was subjected to gel electrophoresis and subjected to immunoblotting using anti-His antibodies. Whole cell lysates of SW480 cells expressing CBP deletion constructs were bound to streptavidin-agarose beads coated with 100 μM of COMPOUND 2. The bound fractions were subjected to gel electrophoresis and immunoblotting using anti-His antibodies (lower panel). Arrows point to constructs which remained bound to COMPOUND 2 coated beads. • C. […] CBP deletion constructs, CBP(1-111),CBP (1-211), and CBP (1-351) and p300 deletion constructs, p300 (1-111), p300 (1-211), and p300 (1-351) were transfected into SW480 cells. Whole cell lysates were incubated with streptavidin-agarose beads or streptavidin-agarose beads coated with 100 μM COMPOUND 2 (lower panel). The binding of CBP constructs (1-111,1-211, and 1-351) and p300 constructs (1-111,1-211, and 1-351) to the beads was challenged with excess COMPOUND 1 (150 μM). • D. CBP (1-111) binds to COMPOUND 1 in a phosphorylation independent manner. […]

Test [2] deals with caspase-3/7 in HCT116 cells. Briefly: Caspase-3/7 activity assay, HCT116 cells. The format is cell-based, human. Particulars: 25 μM, 24 hours, compared to CCD18Co cells. The method, then: FIG. 6. • A. COMPOUND 1 arrests cells in G1. FACS analysis was performed on SW480 (lower panel) and HCT116 (upper panel) cells treated for 24 hours with either COMPOUND 1 (25 μM) (right) or control (0.5% DMSO (left). 5.5×10^6 cells were fixed and stained with propidium iodide (PI). G0/G1, S, and G2/M are indicated by arrows. • B. COMPOUND 1 selectively activates caspases in colon carcinoma cell lines. SW480 and HCT116 (left graph) cells (10^5) along with the normal colonocytes, CCD18Co (right graph) were treated with either control (0.5% DMSO) or COMPOUND 1 (25 μM). 24 hours post treatment, cells were lysed and the caspase-3/7 enzymatic activities were measured. Relative fluorescence units (RFU) were calculated by subtracting the unit values of the blank (control, without cells) from the treated samples (COMPOUND 1 or control) and plotted.
SW480, HCT116, and CCD18Co cells were plated at 10^5 cells per well (96-well plates) for 24 hours prior to treatment. 25 μM of COMPOUND 1 or control (0.5% DMSO) was added to each well. 24 hours post treatment, cells were lysed and caspase activity was measured using a caspase-3/7 activity kit (Apo-One Homogeneous caspase-3/7 assay, #G77905, Promega). Relative fluorescence units (RFU) were obtained by subtracting the unit values of the blank (control, without cells) from the experimental measured values. […]

This is an account of results in patent US7531320B2, “Modulation of β-catenin/TCF-activated transcription” (priority 2003, dated 2009).

T1 sequence (Q09472 1-117): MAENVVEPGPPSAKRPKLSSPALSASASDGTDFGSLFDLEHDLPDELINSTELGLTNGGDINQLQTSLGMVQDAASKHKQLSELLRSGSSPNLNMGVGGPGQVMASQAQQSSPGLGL

`O=C1C(Cc2ccc(O)cc2)N2C(=O)CCN(C(=O)NCc3ccccc3)C2CN1Cc1cccc2ccccc12` (centres unmarked) [COMPOUND 1]: in test [1], the “Competition of p300 fragment binding to COMPOUND 2 beads by excess COMPOUND 1” value is “failed to have any effect”. For the same compound, the Caspase-3/7 activity entry in test [2] was “specifically and significantly activated”.
